# Data: patent publication US20190022165A1, “METHODS AND COMPOSITIONS FOR THE TREATMENT AND PREVENTION OF PULMONARY ARTERIAL HYPERTENSION” (STEALTH BIOTHERAPEUTICS CORP, priority 2016, published 2019)
# Key:
# [1] = test system: several mammalian cell types; details: cited from earlier work
# [2] = test system: heart failure subjects with reduced ejection fraction (HFrEF≤35%); experiment: Single ascending dose trial, 2-D echocardiography: right ventricular fractional area change (RV FAC); assay type: in vivo, human; details: for RV FAC Δ from baseline, Mean Active Group with 95% CI: Cohort 3, 0.25 mg/kg/hour IV 4-hour infusion
# Protocol: (§1) A single-center, randomized, double-blind, placebo-controlled, single ascending dose trial of D-Arg-2′6′-Dmt-Lys-Phe-NH2 was performed in heart failure subjects aged 45-80 years (n=36) with reduced ejection fraction (HFrEF≤35%). Three sequential dose-escalation cohorts were enrolled and administered a single intravenous (IV) dose of D-Arg-2′6′-Dmt-Lys-Phe-NH2 by a 4-hour infusion. In each cohort, 8 subjects were randomly assigned to receive D-Arg-2′6′-Dmt-Lys-Phe-NH2 (active group) and 4 to receive placebo (placebo group infused with 0.9% saline solution in the same manner as the D-Arg-2′6′-Dmt-Lys-Phe-NH2 active group). Eligible subjects were admitted to the research unit on Day 1, were randomized and received the study drug infusion on Day 2 and were discharged on Day 3. Subjects returned to the research unit on Day 7 (+3) for follow-up. The dose levels of D-Arg-2′6′-Dmt-Lys-Phe-NH2 in Cohorts 1, 2, and 3 were 0.005, 0.05, and 0.25 mg/kg/hour, respectively.
# (§2) A single dose of the aromatic-cationic peptide, D-Arg-2′6′-Dmt-Lys-Phe-NH2, was administered intravenously (IV) at 0.005 mg/kg/hour (Cohort 1; low dose), 0.05 mg/kg/hour (Cohort 2; intermediate dose), and 0.25 mg/kg/hour (Cohort 3; high dose) over 4 hours at 60 mL/hour.
# (§3) Echocardiograms (2-D) were performed on Day 2 at pre-dose (0-hr), mid-dose (2-hr), end-dose (4-hr), and 6 hours, 8 hours, 12 hours after infusion initiation, and at Day 3 at 24 hours after infusion initiation in every subject. Primary echo endpoints included end-diastolic volume (EDV) and EDV index, and end-systolic volume (ESV) and ESV index. Secondary echo endpoints included left atrial (LA) volume, right ventricular fractional area change (RV FAC), and right ventricular systolic pressure (RVSP). Exploratory echo endpoints included global longitudinal strain.
# (§4) All statistical analyses, summary tables and data listings were prepared using SAS software Version 9.2 or higher. Overall differences in pharmacokinetic parameters of systemic exposure (e.g., Cmax and AUC) across the 3 different dosing regimens were evaluated by ANOVA. In general, significance was determined at the p<0.05 level. For continuous variables, descriptive statistics (sample size, mean, standard deviation, median, minimum, and maximum values) were determined. For discrete variables, frequency distributions were generated.
# [3] = test system: heart failure subjects with reduced ejection fraction (HFrEF≤35%); experiment: Single ascending dose trial, 2-D echocardiography: right ventricular systolic pressure (RVSP); assay type: in vivo, human
# Protocol: as §1, §2, §3, §4
# [4] = Cohort 3, 0.25 mg/kg/hour, 6 Hours
# [5] = Cohort 3, 0.25 mg/kg/hour, 8 Hours
# [6] = Cohort 3, 0.25 mg/kg/hour, 12 Hours
# [7] = Cohort 3, 0.25 mg/kg/hour, 24 Hours
# [8] = Cohort 3, 0.25 mg/kg/hour, End-Dose
# [9] = Cohort 3, 0.25 mg/kg/hour, Mid-Dose
substance,measurement,setting,value
"2′,6′-Dmt-D-Arg-Phe-Lys-NH2",penetration of the plasma membrane,[1],readily penetrates the plasma membrane of several mammalian cell types in an energy-independent manner
D-Arg-2′6′-Dmt-Lys-Phe-NH2,"right ventricular fractional area change (RV FAC), in words","[2]; Cohort 3, 0.25 mg/kg/hour",overall improvement in right ventricular fractional area change (RV FAC)
same,"RV FAC Δ from baseline, Mean Active Group with 95% CI",[2]; 6 Hours,"2.6 (−0.7, 5.9) %"
same,"RV FAC Δ from baseline, Mean Active Group with 95% CI",[2]; 8 Hours,"3.4 (−0.7, 7.5) %"
same,"RV FAC Δ from baseline, Mean Active Group with 95% CI",[2]; 12 Hours,"1.7 (−4.0, 7.4) %"
same,"RV FAC Δ from baseline, Mean Active Group with 95% CI",[2]; 24 Hours,"2.5 (−2.0, 7.0) %"
same,"RV FAC Δ from baseline, Mean Active Group with 95% CI",[2]; End-Dose,"0.3 (−4.8, 5.5) %"
same,"RV FAC Δ from baseline, Mean Active Group with 95% CI",[2]; Mid-Dose,"1.6 (−2.6, 5.8) %"
same,"RV FAC Δ from baseline, Mean Difference (active vs pooled placebo)",[2]; [4],3.8%
same,"RV FAC Δ from baseline, Mean Difference (active vs pooled placebo)",[2]; [5],4.6%
same,"RV FAC Δ from baseline, Mean Difference (active vs pooled placebo)",[2]; [6],8.9%
same,"RV FAC Δ from baseline, Mean Difference (active vs pooled placebo)",[2]; [7],3.8%
same,"RV FAC Δ from baseline, Mean Difference (active vs pooled placebo)",[2]; [8],0.3%
same,"RV FAC Δ from baseline, Mean Difference (active vs pooled placebo)",[2]; [9],3.8%
same,"RVSP Δ from baseline, Mean Active Group","[3]; Cohort 2, 0.05 mg/kg/hour IV 4-hour infusion, 6 Hours",−4.8 mmHg
same,"RVSP Δ from baseline, Mean Active Group","[3]; Cohort 2, 0.05 mg/kg/hour IV 4-hour infusion, 8 Hours",−6.5 mmHg
same,"RVSP Δ from baseline, Mean Active Group","[3]; Cohort 2, 0.05 mg/kg/hour IV 4-hour infusion, 12 Hours",−5.6 mmHg
same,"RVSP Δ from baseline, Mean Active Group","[3]; Cohort 2, 0.05 mg/kg/hour IV 4-hour infusion, 24 Hours",−5.3 mmHg
same,"RVSP Δ from baseline, Mean Active Group","[3]; Cohort 2, 0.05 mg/kg/hour IV 4-hour infusion, End-Dose",−9.9 mmHg
same,"RVSP Δ from baseline, Mean Active Group","[3]; Cohort 2, 0.05 mg/kg/hour IV 4-hour infusion, Mid-Dose",−8.5 mmHg
same,"RVSP Δ from baseline, Mean Difference (active vs pooled placebo)","[3]; Cohort 2, 0.05 mg/kg/hour, 6 Hours",−4.4 mmHg
same,"RVSP Δ from baseline, Mean Difference (active vs pooled placebo)","[3]; Cohort 2, 0.05 mg/kg/hour, 8 Hours",−4.4 mmHg
same,"RVSP Δ from baseline, Mean Difference (active vs pooled placebo)","[3]; Cohort 2, 0.05 mg/kg/hour, 12 Hours",−9.7 mmHg
same,"RVSP Δ from baseline, Mean Difference (active vs pooled placebo)","[3]; Cohort 2, 0.05 mg/kg/hour, 24 Hours",−5.0 mmHg
same,"RVSP Δ from baseline, Mean Difference (active vs pooled placebo)","[3]; Cohort 2, 0.05 mg/kg/hour, End-Dose",−19.1 mmHg
same,"RVSP Δ from baseline, Mean Difference (active vs pooled placebo)","[3]; Cohort 2, 0.05 mg/kg/hour, Mid-Dose",−8.2 mmHg
same,"pulmonary pressures (RVSP) relative to baseline, in words","[3]; Cohort 2, 0.05 mg/kg/hour, at end dose",significant decrease in pulmonary pressures (RVSP)
same,"RVSP Δ from baseline, Mean Active Group","[3]; Cohort 3, 0.25 mg/kg/hour IV 4-hour infusion, 6 Hours",−11.7 mmHg
same,"RVSP Δ from baseline, Mean Active Group","[3]; Cohort 3, 0.25 mg/kg/hour IV 4-hour infusion, 8 Hours",−1.3 mmHg
same,"RVSP Δ from baseline, Mean Active Group","[3]; Cohort 3, 0.25 mg/kg/hour IV 4-hour infusion, 12 Hours",2.6 mmHg
same,"RVSP Δ from baseline, Mean Active Group","[3]; Cohort 3, 0.25 mg/kg/hour IV 4-hour infusion, 24 Hours",−1.6 mmHg
same,"RVSP Δ from baseline, Mean Active Group","[3]; Cohort 3, 0.25 mg/kg/hour IV 4-hour infusion, End-Dose",−1.2 mmHg
same,"RVSP Δ from baseline, Mean Active Group","[3]; Cohort 3, 0.25 mg/kg/hour IV 4-hour infusion, Mid-Dose",0.9 mmHg
same,"RVSP Δ from baseline, Mean Difference (active vs pooled placebo)",[3]; [4],−11.3 mmHg
same,"RVSP Δ from baseline, Mean Difference (active vs pooled placebo)",[3]; [5],0.9 mmHg
same,"RVSP Δ from baseline, Mean Difference (active vs pooled placebo)",[3]; [6],−1.5 mmHg
same,"RVSP Δ from baseline, Mean Difference (active vs pooled placebo)",[3]; [7],−1.3 mmHg
same,"RVSP Δ from baseline, Mean Difference (active vs pooled placebo)",[3]; [8],−10.3 mmHg
same,"RVSP Δ from baseline, Mean Difference (active vs pooled placebo)",[3]; [9],1.1 mmHg
